Patent publication US20230405003A1, “APPLICATION OF THYMIDINE DERIVATIVE IN PREPARATION OF DRUGS” (ONQUALITY PHARMACEUTICALS CHINA LTD., priority 2020, published 2023)

Columns and labels:
[1] = test system: 5-FU-induced diarrhea in Balb/c mice; test: 5-FU-induced diarrhea mouse model (70 mg/kg/d i.p. for three days); assay type: in vivo; conditions: 5-FU 70 mg/kg/d i.p. three days; for Food Uptake / Survival Rate / Diarrhea Grade: 12 days; for Diarrhea Grade: score 0-4; for Δ % BW on Day 9: (BW day 0 − BW day 9)/BW day 0, ± SEM
Method: Male Balb/c mice (7-8 weeks, 23-25 g) were i.p. injected at a dose of 70 mg/kg/d, and the injection was performed for three days. The mice in the group of blank was injected with 0.9% NaCl, and evaluated for the effect by observing the change of diarrhea grade, food uptake, and weight change. The severity of diarrhea was scored in accordance with the following standards: 0: normal feces, 1: soft feces, 2: slightly wet, soft feces, 3: wet, unformed feces, with moderate coloration in perianal region, 4: watery feces with heavy coloration of hair in perianal region. The severity of diarrhea was evaluated by occurrence scores of various grades of diarrhea (Scores 0 to 4) and average score of diarrhea. […] The models were stable, and satisfied the experimental requirements.
The male Balb/c mice (7-8 weeks, 23-25 g) were fed and adapted for 1 week, and then divided into groups, with 10 mice in each group for administration test. 5-FU was dissolved in a 0.9% NaCl solution, and the mice in the model group and the treatment group were all i.p. injected at a dose of 70 mg/kg/d. The administration doses are shown in Table 6, and the modeling was completed in three days. While modeling of injection administration of 5-FU, the thymidine derivative or the combination of thymidine derivative and uridine derivative was administered by gavage, a series of compounds were dissolved in a PBS solution containing 5% DMSO+1% HPMC. The mice were daily observed for counting the diarrhea status, food uptake, weight change (A % BW) (the weight changes recorded in the table is the value on Day 9) and other information. After 12 days, the experiments were completed and statistically analyzed for the results.

[2] = test system: HaCaT cells; test: Relief of 5-FU proliferative toxicity to HaCaT cells (CCK-8 cell survival); assay type: cell-based; conditions: for activation at 10 µM: compound 10 μM; for activation at 100 µM: compound 100 μM; for activation at 500 µM: compound 500 μM; for activation at 1000 µM: compound 1000 μM; for activation at 1 µM: compound 1 μM; for Cell Survival Rate (increased percentage of cell survival compared with the Group of 5-FU): 5-Fu 20 μM, HaCaT cells
Outline: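 HaCaT keratinocytes (5000–10000/well) cultured 24 h, then exposed 48 h to 5-FU alone or with thymidine derivative, or thymidine plus uridine derivative mix, versus solvent-matched blanks. Survival by CCK-8; value is % increase in survival over 5-FU alone, t-test.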

[3] = test system: hand-foot syndrome caused by Acelarin (NUC-1031) in rats; test: Rat model of hand-foot syndrome caused by Acelarin (NUC-1031), gel application; assay type: in vivo; conditions: Acelarin (NUC-1031) 130 mg/kg intraperitoneal injection twice a week, gel 3 wt%, 30 days
Method: After SD rats were fed and adapted for one week (about 200 g), the rats were divided into groups, with 10 rats in each group. Then, the rats were subject to gavage administration. Capecitabine was dissolved in a 1:1 mixed solution of castor oil and ethanol and diluted for three times with PBS buffer. After gavage, the rats were fixed with a fixed cylinder, and a gel of thymidine derivative (or a compounded gel of thymidine derivative and uridine derivative) was applied to double hind paws (about 1 cm*3 cm) of the rats in group of administration (the types and concentrations are shown in Table 4), and a blank gel was applied to the group of blank (as a blank control). After approximately 4 hours of application, the rats were released after 4 hours, wiped with clean water to remove any residual drug at the application site, and allowed back to the cage. The thymidine derivative gel (or the compounded gel of thymidine derivative and uridine derivative) was administered with gavage every day. The gavage and application tests are repeated daily until the group of blank has developed obvious hand-foot syndrome.
The effects of thymidine derivative or a combination of thymidine derivative and uridine derivative on the chemotherapeutic drug-induced hand-foot syndrome in a rat model were tested according to the method in Examples 30-40. At the same time, paws of rats after treatment with the drug were taken and observed for their inflammation by hematoxylin-eosin staining (HE) and immunohistochemical staining (IHC).
The test thymidine derivative or the combination of thymidine derivative and uridine derivative, as well as the final concentration of the test compounds were shown in Table 8. Table 8 lists the animal experiment combination of a chemotherapeutical drug and the thymidine derivative gel (or the compound gel of thymidine derivative and uridine derivative) and the corresponding experimental results (wherein, the data in the column of control rate=the occurrence rate of hand-foot syndrome in Group of blank—the occurrence rate of hand-foot syndrome in Group of administration).

[4] = Homo sapiens, HaCaT, increase vs Group of 5-FU, 5-FU 20 μM, 48 h, read-out: Cell Survival Rate
[5] = selected compound final concentration 3.13 μM
[6] = selected compound final concentration 6.25 μM
[7] = selected compound final concentration 12.5 μM
[8] = selected compound final concentration 25 μM
[9] = selected compound final concentration 50 μM

Row | Structure (SMILES) | Food Uptake ([1]; 75 mpk BID PO) | Survival Rate ([1]; 75 mpk BID PO) [%] | Diarrhea Grade ([1]; 75 mpk BID PO) | Δ % BW on Day 9 ([1]; 75 mpk BID PO) | activation at 10 µM [2, 4] [%] | activation at 100 µM [2, 4] [%] | activation at 500 µM [2, 4] [%] | activation at 1000 µM [2, 4] [%] | activation at 1 µM [2, 4] [%] | Control Rate Forepaws [3] [%] | Control Rate Hindpaws [3] [%] | Cell Survival Rate (increased percentage of cell survival compared with the Group of 5-FU) [2, 5] | Cell Survival Rate (increased percentage of cell survival compared with the Group of 5-FU) [2, 6] | Cell Survival Rate (increased percentage of cell survival compared with the Group of 5-FU) [2, 7] | Cell Survival Rate (increased percentage of cell survival compared with the Group of 5-FU) [2, 8] | Cell Survival Rate (increased percentage of cell survival compared with the Group of 5-FU) [2, 9] | also measured
1 | CC(=O)OCC1OC(n2cc(C)c(=O)[nH]c2=O)CC1OC(C)=O (stereo not shown) [T1] | 100 | 80 | 1.3 | 3.8% ± 1.6 | 10 to 16 | 31 to 37 | 36 to 41 | 35 to 42 |  |  |  |  |  |  |  |  | Food Uptake ([1]; 37 mpk BID PO): 155; Survival Rate ([1]; 37 mpk BID PO): 100%; Diarrhea Grade ([1]; 37 mpk BID PO): 1.4; Food Uptake ([1]; 150 mpk BID PO): 89; Survival Rate ([1]; 150 mpk BID PO): 80%; Diarrhea Grade ([1]; 150 mpk BID PO): 1.5; Δ % BW on Day 9 ([1]; 37 mpk BID PO): 4.3% ± 3.7; Δ % BW on Day 9 ([1]; 150 mpk BID PO): 16.3% ± 6.5; activation at 5 µM ([2]; Homo sapiens, HaCaT, increase vs Group of 5-FU, 5-FU 20 μM, compound 5 μM, 48 h, read-out: Cell Survival Rate): 1 to 6%; activation at 50 µM ([2]; Homo sapiens, HaCaT, increase vs Group of 5-FU, 5-FU 20 μM, compound 50 μM, 48 h, read-out: Cell Survival Rate): 21 to 26%; activation at 200 µM ([2]; Homo sapiens, HaCaT, increase vs Group of 5-FU, 5-FU 20 μM, compound 200 μM, 48 h, read-out: Cell Survival Rate): 42 to 48%; activation at 1500 µM ([2]; Homo sapiens, HaCaT, increase vs Group of 5-FU, 5-FU 20 μM, compound 1500 μM, 48 h, read-out: Cell Survival Rate): 29 to 33%; activation at 3000 µM ([2]; Homo sapiens, HaCaT, increase vs Group of 5-FU, 5-FU 20 μM, compound 3000 μM, 48 h, read-out: Cell Survival Rate): 17 to 23%
2 | CC(=O)O[C@H]1C[C@H](n2cc(C)c(=O)[nH]c2=O)O[C@@H]1CO [T2] | 123 | 100 | 1.4 | 6.6% ± 3.1 | 35 to 45 | 70 to 80 | 75 to 85 | 60 to 70 | 14 to 18 |  |  |  |  |  |  |  | 
3 | CC(=O)OC[C@H]1O[C@@H](n2cc(C)c(=O)[nH]c2=O)C[C@@H]1O [T3] |  |  |  |  | 30 to 38 | 80 to 86 | 69 to 75 | 58 to 65 | 13 to 18 |  |  |  |  |  |  |  | Food Uptake ([1]; 50 mpk BID PO): 109; Survival Rate ([1]; 50 mpk BID PO): 70%; Diarrhea Grade ([1]; 50 mpk BID PO): 1.6; Δ % BW on Day 9 ([1]; 50 mpk BID PO): 8.4% ± 3.2
4 | COc1ccc2cc([C@H](C)C(=O)OC[C@H]3O[C@@H](n4cc(C)c(=O)[nH]c4=O)C[C@@H]3O)ccc2c1 [T25] |  |  |  |  |  |  |  |  |  | 57.14 | 42.86 |  |  |  |  |  | 
5 | Cc1cn([C@H]2C[C@H](O)[C@@H](COC(=O)[C@H](C)c3ccc(CC(C)C)cc3)O2)c(=O)[nH]c1=O [T32] |  |  |  |  |  |  |  |  |  | 50 | 62.50 | 35%-41% | 29%-36% | 46%-52% | 53%-60% | 59%-66% | Cell Survival Rate (increased percentage of cell survival compared with the Group of 5-FU) ([2]; selected compound final concentration 100 μM): 78%-85%
6 | CC1=C(CC(=O)OC[C@H]2O[C@@H](n3cc(C)c(=O)[nH]c3=O)C[C@@H]2O)c2cc(F)ccc2/C1=C\c1ccc([S+](C)[O-])cc1 (stereo partly shown) [T40] |  |  |  |  |  |  |  |  |  | 50 | 62.50 | 45%-52% | 47%-56% | 49%-54% | 58%-65% | 48%-55% | Cell Survival Rate (increased percentage of cell survival compared with the Group of 5-FU) ([2]; selected compound final concentration 0.8 μM): 42%-50%; Cell Survival Rate (increased percentage of cell survival compared with the Group of 5-FU) ([2]; selected compound final concentration 1.6 μM): 57%-65%
